According to article PMC7823652 (Viruses, 2020):
Read-outs that look alike come from different tables or passages of the source.

What was measured:
[1] = system: ZIKV; assay: Antiviral dose-response in ZIKV-infected U87 cells (infected cells, viral titer); format: cell-based, Zika virus (strain H/PF/2013); conditions: for EC50: U87, ZIKV MOI 1, 48 h
[2] = system: U87 cells; assay: Cell viability by nuclei count in ZIKV-infected U87 cells; format: cell-based, Human
[3] = system: ZIKV; assay: Antiviral dose-response in ZIKV-infected Vero cells; format: cell-based, Zika virus (strain H/PF/2013); conditions: Zika virus, 48 h
[4] = system: ZIKV; assay: Time-of-addition assay in ZIKV-infected U87 cells; format: cell-based, Zika virus (strain H/PF/2013)
[5] = system: Vero cells; assay: Cell viability by nuclei count in ZIKV-infected Vero cells; format: cell-based, African Green Monkey
[6] = system: ZIKV; assay: Image-based phenotypic antiviral screen in ZIKV-infected U87 cells; format: cell-based, Zika virus (strain H/PF/2013); conditions: for Infected Cells (U87, ZIKV) / Viral Titer (ZIKV): screen, U87 cells; for inhibition at 10 µM: Zika virus, U-87 MG
[7] = system: HAZV; assay: microbe, parasite or virus in culture; format: cell-based, Hazara virus (isolate JC280); conditions: for inhibition at 10 µM: Hazara virus, SW13, 24 h; for Infected Cells (SW13, HAZV) / Viral Titer (HAZV): screen, SW13 cells
[8] = Screen cytotoxicity by nuclei count in ZIKV-infected U87 cells; format: cell-based; conditions: human; for viability at 48 h, 10 µM / viability at 10 µM: ZIKV-infected U87 cells; for viability at 48 h, 10 µM: ZIKV MOI 10, compound 10 µM, nuclei count relative to DMSO; for viability at 10 µM: screen
[9] = system: ZIKV; assay: Time course of ZIKV replication in U87 cells (vRNA, infected cells, titer)
[10] = Cell viability assay (Resazurin), uninfected U87 cells; format: cell-based, Human; conditions: human, read-out: Viability CC50 [µM] (95%-CI); for CC50 at 24 h: uninfected U87, 24 h; for CC50 at 48 h: uninfected U87, 48 h; for CC50 at 72 h: uninfected U87, 72 h
[11] = in vitro; conditions: human
[12] = system: human brain organoids; assay: Viability and structure of ZIKV-infected human cerebral organoids; conditions: ZIKV 2 × 10^4 particles/organoid, 5 μM, 7 dpi and 10 dpi
[13] = system: ZIKV; assay: ZIKV infection (NS1 intensity) and viral titer in human cerebral organoids; format: cell-based, Zika virus (strain H/PF/2013); conditions: ZIKV 2 × 10^4 particles/organoid, 5 μM, all timepoints, relative to DMSO
[14] = target: hOGG1 (Homo sapiens, UniProt O15527); assay: hOGG1 IC50 (listed in supplementary data, method not described); format: biochemical
Chain of hOGG1 (O15527 whole entry): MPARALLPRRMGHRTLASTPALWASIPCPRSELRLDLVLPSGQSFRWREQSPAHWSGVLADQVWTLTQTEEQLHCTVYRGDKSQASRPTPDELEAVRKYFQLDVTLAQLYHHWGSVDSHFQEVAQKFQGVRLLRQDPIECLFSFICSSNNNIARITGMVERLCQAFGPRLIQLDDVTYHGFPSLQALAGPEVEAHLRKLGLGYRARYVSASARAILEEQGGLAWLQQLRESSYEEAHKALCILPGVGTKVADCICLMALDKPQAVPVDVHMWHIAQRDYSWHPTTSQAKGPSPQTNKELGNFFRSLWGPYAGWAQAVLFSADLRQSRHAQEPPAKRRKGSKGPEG

[15] = system: U87 cells; assay: Cell viability assay (Resazurin), uninfected U87 cells; format: cell-based, Human; conditions: for CC50: read-out: Viability CC50 [µM] (95%-CI)
[16] = U87, ZIKV MOI 10, 100 µM Ribavirin (positive control), 48 h
[17] = ZIKV MOI 10, 100 µM Ribavirin (positive control), 48 h
[18] = read-out: Inhibition of HAZV titer (%)
[19] = read-out: Inhibition of primary HAZV infection (%)
[20] = U87, ZIKV MOI 1, from 24 hpi and onwards
[21] = Zika virus, U-87 MG, 48 h, read-out: Antiviral on primary infection IC50 [µM], ZIKV, U87, MOI 10, 48 h
[22] = Zika virus, U-87 MG, 48 h, read-out: Antiviral on titer (µM) IC50 [µM], ZIKV, U87, MOI 10, 48 h
[23] = Zika virus, U-87 MG, ZIKV NS1 staining, read-out: EC50 [μM] Infected cells
[24] = Zika virus, U-87 MG, end-point dilution assay, read-out: EC50 [μM] Viral titer
[25] = Homo sapiens, U-87 MG, 48 h, read-out: Viability (nuclei count) EC50 [µM]
[26] = U87, ZIKV MOI 10, compound 10 µM, 48 h, relative to DMSO
[27] = ZIKV MOI 10, compound 10 µM, 48 h, relative to DMSO
[28] = U87, ZIKV MOI 10, compound 10 µM, 48 h, relative to DMSO, read-out: Inhibition of ZIKV titer (%)
[29] = U87, ZIKV MOI 10, compound 10 µM, 48 h, relative to DMSO, read-out: Inhibition of primary ZIKV infection (%)

NC(=O)c1ncn([C@@H]2O[C@H](CO)[C@@H](O)[C@H]2O)n1 [Ribavirin, reference compound]
IC50 ([1]; Zika virus, U-87 MG, 48 h, ZIKV, U87, MOI 1, 48 h, read-out: Antiviral on primary infection IC50): 60.7 µM | IC50 ([1]; Zika virus, U-87 MG, 48 h, ZIKV, U87, MOI 1, 48 h, read-out: Antiviral on titer (µM) IC50): 52.8 µM | IC50 ([1]; Zika virus, U-87 MG, 48 h, ZIKV, U87, MOI 10, 48 h, read-out: Antiviral on primary infection IC50): 59.2 µM | IC50 ([1]; Zika virus, U-87 MG, 48 h, ZIKV, U87, MOI 10, 48 h, read-out: Antiviral on titer (µM) IC50): 31.1 µM | EC50 ([2]; Homo sapiens, U-87 MG, ZIKV, U87, MOI 10, 48 h, read-out: Viability (nuclei count) EC50): > 200 µM | EC50 ([2]; ZIKV, U87, MOI 1, 48 h, read-out: Viability (nuclei count) EC50): > 200 µM | IC50 ([3]; MOI 1, 48 h, read-out: Antiviral on primary infection IC50): 52.6 µM | IC50 ([3]; MOI 1, 48 h, read-out: Antiviral on titer (µM) IC50): 21 µM | IC50 ([3]; MOI 10, 48 h, read-out: Antiviral on primary infection IC50): 65.1 µM | IC50 ([3]; MOI 10, 48 h, read-out: Antiviral on titer (µM) IC50): 41 µM | reduction of ZIKV titers, post-inoculation step ([4]; U87, ZIKV MOI 10, 100 μM Ribavirin for 24 h after inoculation): 80% | effect on viral titer, later steps (budding) ([4]; U87, ZIKV MOI 10, 100 μM Ribavirin from 22 h for 2 h): no effect | effect on viral titer, entry steps ([4]; U87, ZIKV MOI 10, 100 μM Ribavirin, pre-treatment and during inoculation): no effect | EC50 ([5]; Chlorocebus sabaeus, MOI 10, 48 h): > 200 µM | EC50 ([5]; MOI 1, 48 h): > 200 µM | Inhibition of ZIKV titer (%) [6, 16]: 63% | Inhibition of primary ZIKV infection (%) [6, 16]: 60% | Viral Titer (ZIKV) (%) [6, 16]: 37% | Infected Cells (U87, ZIKV) (%) [6, 17]: 40% | Infected Cells (U87, ZIKV) [6]: 40% | Viral Titer (ZIKV) [6]: 37% | inhibition at 10 µM [7, 18]: 98% | inhibition at 10 µM [7, 19]: 47% | Infected Cells (SW13, HAZV) [7]: 53% | Viral Titer (HAZV) [7]: 2% | viability at 48 h, 100 µM [8, 17]: 91% | intracellular vRNA levels ([9]; U87, ZIKV MOI 1, all timepoints (24, 48, 72 h)): reduced | ZIKV titers [9, 20]: reduced | extracellular vRNA [9, 20]: reduced | CC50 at 24 h ([10]; uninfected U87 cells): > 300 µM | CC50 at 48 h ([10]; uninfected U87 cells): > 300 µM | CC50 at 72 h ([10]; uninfected U87 cells): > 300 µM | viability at 10 µM [11]: 99% | viability at 24 h, 10 µM [11]: 99%

O=C(Nc1ccc(I)cc1)N1CCC(n2c(=O)[nH]c3cc(Cl)ccc32)CC1 [TH3289]
IC50 [1, 21]: 2.8 µM | IC50 [1, 22]: 2.5 µM | EC50 [1, 23]: 2.8 µM | EC50 [1, 24]: 2.5 µM | EC50 [2, 25]: > 50 µM | Viral Titer (ZIKV) (%) [6, 26]: 4% | Infected Cells (U87, ZIKV) (%) [6, 27]: 59% | inhibition at 10 µM [6, 28]: 96% | inhibition at 10 µM [6, 29]: 41% | Infected Cells (U87, ZIKV) [6]: 59% | Viral Titer (ZIKV) [6]: 4% | inhibition at 10 µM [7, 18]: 95% | inhibition at 10 µM [7, 19]: 58% | Infected Cells (SW13, HAZV) [7]: 42% | Viral Titer (HAZV) [7]: 5% | viability at 48 h, 10 µM ([8]; 48 h): 92% | viability at 10 µM [8]: 92% | CC50 at 24 h [10]: > 50 µM | CC50 at 48 h [10]: > 50 µM | CC50 at 72 h [10]: 34 µM | viability at 24 h, 10 µM [11]: 77%

O=C(Nc1ccc(I)cc1)N1CCC(n2c(=O)[nH]c3cc(C(F)(F)F)ccc32)CC1 [TH5264, N-(4-iodophenyl)-4-[2-oxo-5-(trifluoromethyl)-2,3-dihydro-1H-1,3-benzodiazol-1-yl]piperidine-1-carboxamide]
IC50 [1, 21]: 2.7 µM | IC50 [1, 22]: 3.2 µM | EC50 [1, 23]: 2.7 µM | EC50 [1, 24]: 3.2 µM | EC50 [2, 25]: 26.7 µM | Viral Titer (ZIKV) (%) [6, 26]: 2% | Infected Cells (U87, ZIKV) (%) [6, 27]: 46% | inhibition at 10 µM [6, 28]: 98% | inhibition at 10 µM [6, 29]: 54% | Infected Cells (U87, ZIKV) [6]: 46% | Viral Titer (ZIKV) [6]: 2% | viability at 48 h, 10 µM ([8]; 48 h): 86% | viability at 10 µM [8]: 86% | CC50 at 24 h [10]: > 50 µM | CC50 at 48 h [10]: > 50 µM | CC50 at 72 h [10]: 31.5 µM | viability at 24 h, 10 µM [11]: 94%

O=C(Nc1ccc(I)cc1)N1CCC(n2c(=O)[nH]c3c(Br)cccc32)CC1 [TH5487]
EC50 ([1]; ZIKV NS1 staining, read-out: EC50 [μM] Infected cells): 2.8 µM | EC50 ([1]; end-point dilution assay, read-out: EC50 [μM] Viral titer): 2 µM | IC50 ([1]; ZIKV, U87, MOI 10, 48 h, read-out: Antiviral on primary infection IC50): 2.8 µM | IC50 ([1]; ZIKV, U87, MOI 10, 48 h, read-out: Antiviral on titer (µM) IC50): 2 µM | EC50 ([2]; ZIKV, U87, MOI 10, 48 h, read-out: Viability (nuclei count) EC50): 35.2 µM | phenotypic rescue (retained structure of organoids) [12]: phenotypic rescue | reduction of ZIKV progeny particles produced by the organoids [13]: 60–70% | IC50 [14]: 0.142 µM | IC50 ([15]; U87, Resazurin, all measured time points (24, 48 or 72 h), read-out: IC50 (toxicity profile, cellular viability)): > 50 µM | CC50 ([15]; uninfected U87, 24 h): > 50 µM | CC50 ([15]; uninfected U87, 48 h): > 50 µM | CC50 ([15]; uninfected U87, 72 h): > 50 µM
